Columns and labels:
[1] = system: uterine weight of the immature mouse; test: Estrogenic effect: uterine weight of the immature mouse; type: in vivo, C57-WH mice
Procedure: Immature female C57-WH mice were maintained at 25° C. at 12 hours light/12 hours dark (lights on at 0800 h and off at 2000 h). Purina Lab Chow and water were available ad libitum. The control and each experimental group of animals consisted of six mice. Treatment began after an acclimation period of five days. Beginning at 27 days of age and continuing for three consecutive days, the mice were orally intubated with DHEA or β-MET suspended in sesame oil. The control mice received only sesame oil. Between 1400-1600 h on day 30, all animals were sacrificed by an overdose of ether. Uteri were removed, cleaned of adventitious tissue, and weighed to the nearest 0.5 mg.
All reported results are expressed as the mean plus or minus the standard error (mean±SE).

11β-hydroxylase = settings: cited from earlier work
[2] = system: thyroid stimulating hormone and thyroxine; settings: cited from earlier work
NADH oxidase = settings: cited from earlier work
[3] = system: glucose-6-phosphate dehydrogenase (G6PD); settings: cited from earlier work
[4] = DHEA treatment in mice; cited from earlier work
[5] = cited from earlier work
fatty acid synthetase [6] = settings: prolonged treatment; mice with excessive levels of this enzyme; cited from earlier work
fatty acid synthetase [7] = settings: cited from earlier work
obesity [8] = settings: known; cited from earlier work
[9] = cited from earlier work; for deactivation and excretion from general circulation: once excreted from cells to the general circulation; for conjugation in blood stream: when excreted by individual cells to the blood stream
Salmonella typhimurium = settings: alone and with liver homogenate fraction from rat treated with polychlorinated biphenyl
Procedure: β-MET was tested for mutagenicity by administration to a his^- auxotrophic mutant of Salmonella typhimurium.β-MET was administered alone and with a liver homogenate fraction from a rat that had been treated with polychlorinated biphenyl.

obesity [10] = test: Anti-obesity efficacy in various mammalian systems (general statement); type: in vivo
[11] = Body weight of C57-WH mice treated with β-MET for 14 weeks; type: in vivo; settings: for mean weight after 14 weeks: 0.07 mg (~4.6 mg/kg) PO three times weekly, n=10; for significance of difference in mean weights versus control: significant at p<0.01
Procedure: (§1) Forty C57-WH mice were maintained five per cage in a temperature-controlledroom (25° C.) with 12-h light/day (7:00 A.M. to 7:00 P.M.). All mice were at ten weeks of age when the experiment was begun.
(§2) The mice were divided into four groups: β-MET-treated female; control female; β-MET-treated male; and control male (for each group, n=10). All β-MET-treated animals received 0.07 mg (~4.6 mg/kg) of the β-MET administered as a suspension in sesame oil by PO intubation three times weekly. The control animals received only sesame oil. The mice were treated for a period of 14 weeks with access to Purina Laboratory chow and water ad libitum. Body weights were recorded weekly, and food consumption was determined by subtracting the food remaining from the food supplied at the beginning of each week.
(§3) Student's t-test was used in all statistical analyses of the data. Data are presented as means ±SD from the four groups of mice. Differences were considered significant at p<0.01.

[12] = Cumulative food consumption of C57-WH mice treated with β-MET for 14 weeks; type: in vivo
Procedure: as §1, §2, §3

[13] = Acute oral toxicity in mice (LD50); type: in vivo, C57-WH mice
Procedure: The LD50 of β-MET administered orally in mice could not be accurately determined. However, five male and five female C57-WH mice, each weighing approximately 15 g, received 200 mg of β-MET, suspended in sesame oil, by p.o. intubation.

[14] = Short-term (thirty day) treatment with large doses in mice; type: in vivo, C57-WH mice
Procedure: Five male and five female C57-WH mice (age: ~11 weeks, weight: ~15 g each) each received 200 mg/kg of β-MET, suspended in sesame oil, by p.o. intubation every second day for a period of thirty days. Another group of ten matched controls received only the sesame oil. […] Abnormalities such as hypertrophic lymph nodes, diarrhea, bloody stools, or loss of hair luster were not seen.

[15] = 200 mg/kg p.o. every second day for thirty days

## C[C@]12CC[C@H](O)CC1=CC[C@@H]1[C@@H]2CC[C@]2(C)C(=O)CC[C@@H]12 [DHEA, dehydroepiandrosterone]
[1]; daily dose 400.0 mg/kg, oral, three consecutive days from day 27, mean±SE, control 58.0 ± 3
  Uterine weight: 257.0 ± 5 mg/100 g body weight
11β-hydroxylase
  inhibition of 11β-hydroxylase: known to inhibit 11β-hydroxylase
[2]; rat studies
  thyroid follicle epithelium: hypertrophy of the thyroid follicle epithelium
[2]; rat, in vivo
  levels of thyroid stimulating hormone and thyroxine in the blood: known to increase levels of thyroid stimulating hormone and thyroxine in the blood
NADH oxidase
  inhibition of NADH oxidase: known inhibitor of NADH oxidase
[3]
  inhibition of mammalian G6PD: known to inhibit mammalian glucose-6-phosphate dehydrogenase
[4]
  lipogenesis and fat cell size: decreases in lipogenesis and fat cell size
[5]; in vivo
  toxicity in humans: relatively low toxicity in humans
[5]; long-term administration, humans
  estrogenic and androgenic effects: Estrogenic and androgenic effects
Fatty acid synthetase [6]
  liver and adipose tissue fatty acid synthetase activity: decrease liver and adipose tissue fatty acid synthetase activity
Fatty acid synthetase [7]
  inhibition of fatty acid synthetase: known to directly inhibit fatty acid synthetase

## C[C@]12CC[C@@H](O)C[C@H]1CC[C@@H]1[C@@H]2CC[C@]2(C)C(=O)CC[C@@H]12 [α-HET, 3α-hydroxyetiocholanone]
Obesity [8]
  anti-obesity effects attributed to DHEA: known to accomplish the anti-obesity effects attributed to DHEA
[9]
  deactivation and excretion from general circulation: rapidly deactivated and excreted from the body
  conjugation in blood stream: conjugated to glucuronic acid at the 3-hydroxy position

## C[C@]12CC[C@H](O)C[C@H]1CC[C@@H]1[C@@H]2CC[C@]2(C)C(=O)CC[C@@H]12 [β-HET, 5-β-androstan-3-β-ol-17-one]
Obesity [8]
  anti-obesity effects attributed to DHEA: known to accomplish the anti-obesity effects attributed to DHEA
[9]
  deactivation and excretion from general circulation: rapidly deactivated and excreted from the body
  conjugation in blood stream: conjugated to glucuronic acid at the 3-hydroxy position

## C[C@H]1CC[C@@]2(C)[C@H](CC[C@@H]3[C@@H]2CC[C@]2(C)C(=O)CC[C@@H]32)C1 [β-MET, 3-β-methyl-5-β-androstan-17-one]
Salmonella typhimurium
  mutagenicity: not mutagenic
Obesity [10]; comparison to 3β-HET
  inhibition of obesity in comparison to 3β-HET: much more effective inhibitor of obesity
Obesity [10]; various mammalian systems
  antiobesity efficacy and safety: safe and effective antiobesity agent
[11]; female, control female 26.1 g
  mean weight after 14 weeks: 21.8 g
[11]; female
  significance of difference in mean weights versus control: a significant difference in mean weights was observed after the third week of treatment
[11]; male and female C57-WH mice, 14 weeks (FIG. 5)
  inhibition of weight gain: significantly inhibits weight gain
[11]; male, control male 24.8 g
  mean weight after 14 weeks: 20.7 g
[11]; male
  significance of difference in mean weights versus control: statistically significant after the sixth week of treatment
[12]; female, 14 weeks (FIG. 6)
  food intake versus control: not significantly different
[12]; male and female (FIG. 6)
  effect on appetite: without suppressing appetite
[12]; male, 14 weeks (FIG. 6)
  cumulative food consumption versus control: not significantly different
[1]; mouse, in vivo
  estrogenic activity: does not exhibit similar estrogenic activity
[13]; 200 mg p.o. per ~15 g mouse, five male and five female
  survival: All of the animals survived
[13]; mouse, in vivo, po, mice, p.o. in sesame oil
  LD50: > 10000 mg/kg
[14]; [15]
  behavioral or external physical differences from controls: no obvious behavioral or external physical differences from controls
  hypertrophic lymph nodes, diarrhea, bloody stools, or loss of hair luster: not seen
  postmortem studies: no gross abnormalities or visible pathological changes
  survival and health: all experimental mice were alive and apparently healthy
[14]; approximately 20x the effective anti-obesity dose in mice
  harm by short-term treatment with relatively large doses: appears not to be harmful to mice
[14]; mouse, in vivo, po, 200 mg/kg
  examination of visible membranes: no abnormal findings
